Results from patent publication US20230321008A1, “INHIBITORS OF ACID SPHINGOMYELINASE FOR PREVENTING AND TREATING THE COVID-19 DISEASE” (priority 2020, published 2023).
Entries after “also recorded” stand apart in the source; their conditions may differ.

Tests used:
[1] = tested on: ceramide-enriched membrane domains; details: in vitro; cited from earlier work
SARS-CoV-2 [2] = details: oral use in healthy volunteers; cited from earlier work
[3] = biological target: T1, acid sphingomyelinase (ASM) (Homo sapiens, UniProt P17405); details: cited from earlier work
T1 sequence (P17405 47-631): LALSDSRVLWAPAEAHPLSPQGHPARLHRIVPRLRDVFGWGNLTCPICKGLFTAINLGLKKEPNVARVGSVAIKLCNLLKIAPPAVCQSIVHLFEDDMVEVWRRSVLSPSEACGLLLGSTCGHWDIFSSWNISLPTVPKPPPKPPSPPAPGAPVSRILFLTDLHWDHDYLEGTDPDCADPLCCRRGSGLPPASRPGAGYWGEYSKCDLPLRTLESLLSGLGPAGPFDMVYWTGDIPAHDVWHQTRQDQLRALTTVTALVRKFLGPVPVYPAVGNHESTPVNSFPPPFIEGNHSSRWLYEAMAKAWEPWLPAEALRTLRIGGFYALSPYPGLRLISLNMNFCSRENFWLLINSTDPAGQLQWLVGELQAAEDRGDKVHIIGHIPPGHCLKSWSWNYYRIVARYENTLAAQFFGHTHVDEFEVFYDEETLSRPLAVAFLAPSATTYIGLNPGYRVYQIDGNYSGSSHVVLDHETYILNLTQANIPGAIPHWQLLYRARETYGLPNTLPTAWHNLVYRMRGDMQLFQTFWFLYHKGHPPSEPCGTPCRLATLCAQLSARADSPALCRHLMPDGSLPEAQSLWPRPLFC

SARS-CoV-2 [4] = details: cited from earlier work
severe COVID-19 [5] = assay: Example 1: multicenter observational retrospective cohort study, FIASMA psychotropic medication use at baseline and intubation or death in patients with mental disorder; assay type: in vivo, human; details: patients with mental disorder hospitalized for severe COVID-19; vs not exposed
Description: We conducted a multicenter observational retrospective cohort study at 36 AP-HP hospitals from the beginning of the epidemic in France, i.e. January 24th, until May 1st. We included all adults aged 18 years or over with a mental disorder who have been hospitalized in these medical centers for severe COVID-19. Mental disorder was defined as having at least one current International Statistical Classification of Diseases and Related Health Problems (ICD-10) diagnosis of mental disorder (F01-F99) during the visit or an ongoing prescription of any antidepressant, antipsychotic, or mood stabilizer (i.e. lithium or antiepileptic medications with mood stabilizing effects) for a psychiatric disorder at hospital admission. COVID-19 was ascertained by a positive reverse-transcriptase-polymerase-chain-reaction (RT-PCR) test from analysis of nasopharyngeal or oropharyngeal swab specimens. […]
We calculated frequencies of baseline characteristics described above in patients receiving or not receiving a FIASMA psychotropic medication and compared them using standardized mean differences (SMD). […]

SARS-CoV-2 [6] = details: in vitro; cited from earlier work
severe COVID-19 [7] = assay: Example 2: multicenter observational retrospective cohort study, FIASMA medication use at baseline and intubation or death in patients hospitalized for severe COVID-19; assay type: in vivo, human; details: vs no FIASMA medication
Description: We included all adults aged 18 years or over who have been hospitalized in these medical centers for severe COVID-19. COVID-19 was ascertained by a positive reverse-transcriptase-polymerase-chain-reaction (RT-PCR) test from analysis of nasopharyngeal or oropharyngeal swab specimens. Severe COVID-19 at admission was defined as having at least one of the following criteria: respiratory rate > 24 breaths/min or < 12 breaths/min, resting peripheral capillary oxygen saturation in ambient air < 90%, temperature > 40° C., systolic blood pressure < 100 mm Hg or high lactate levels. AP-HP clinical Data Warehouse initiatives ensure patient information and informed consent regarding the different approved studies through a transparency portal in accordance with European Regulation on data protection and authorization n°1980120 from National Commission for Information Technology and Civil Liberties (CNIL).
We used data from the AP-HP Health Data Warehouse (‘Entrepôt de Données de Santé (EDS)’). This warehouse contains all available clinical data on all inpatient visits for COVID-19 to any Greater Paris University hospital. The data included patient demographic characteristics, vital signs, laboratory test and RT-PCR test results, medication administration data, medication lists during current and past hospitalizations in AP-HP hospitals, current diagnoses, discharge disposition, and death certificates.
We obtained the following data for each patient at the time of the hospitalization: sex; age, which was categorized into 4 classes based on the OpenSAFELY study results (i.e. 18-50, 51-70, 71-80, 81+); hospital, which was categorized into 4 classes following the administrative clustering of AP-HP hospitals in Paris and its suburbs based on their geographical location (i.e., AP-HP Centre - Paris University, Henri Mondor University Hospitals and at home hospitalization; AP-HP Nord and Hôpitaux Universitaires Paris Seine-Saint-Denis; AP-HP Paris Saclay University; and AP-HP Sorbonne University); obesity, which was defined as having a body mass index higher than 30 kg/m^2 or an International Statistical Classification of Diseases and Related Health Problems (ICD-10) diagnosis code for obesity (E66.0, E66.1, E66.2, E66.8, E66.9); self-reported current smoking status; and any medication prescribed according to compassionate use or as part of a clinical trial (e.g. hydroxychloroquine, azithromycin, remdesivir, tocilizumab, sarilumab, or dexamethasone). To take into account possible confounding by indication bias for FIASMA medication, we recorded whether patients had any current diagnosis, based on ICD-10 diagnosis codes, for neoplasms and diseases of the blood (C00-D89); mental disorders (F01-F99); diseases of the nervous system (G00-G99); cardiovascular disorders (I00-I99); respiratory disorders (J00-J99); digestive disorders (K00-K95); dermatological disorders (L00-L99); diseases of the musculoskeletal system (M00-M99); diseases of the genitourinary system (N00-N99); endocrine disorders (E00-E89); and eye-ear-nose-throat disorders (H00-H95).
All medical notes and prescriptions are computerized in Greater Paris University hospitals. Medications including their dosage, frequency, date, and mode of administration were identified from medication administration data or scanned handwritten medical prescriptions, through two deep learning models based on BERT contextual embeddings, one for the medications and another for their mode of administration. The model was trained on the APmed corpus, a previously annotated dataset for this task. Extracted medications names were then normalized to the Anatomical Therapeutic Chemical (ATC) terminology using approximate string matching.
FIASMA medication use was defined as receiving at least one FIASMA medication at study baseline, i.e. within the first 24 hours of hospital admission, and before the end of the index hospitalization, intubation or death.

SARS-CoV-2 [8] = details: cited from earlier work; remark: listed apart in the source
dopamine D2 receptor = dopamine D2 receptor (Homo sapiens, UniProt P14416); details: cited from earlier work
COVID-19 [9] = assay: Example 3: multicenter observational retrospective study, hydroxyzine use and death in patients admitted to hospital with COVID-19; assay type: in vivo, human
[10] = biological target: serotonin 5-HT2A-receptor (Homo sapiens, UniProt P28223); details: cited from earlier work
α1-adrenergic receptor = details: cited from earlier work
COVID-19 [11] = details: human, in vivo; cited from earlier work

Chain of serotonin 5-HT2A-receptor (P28223 whole entry): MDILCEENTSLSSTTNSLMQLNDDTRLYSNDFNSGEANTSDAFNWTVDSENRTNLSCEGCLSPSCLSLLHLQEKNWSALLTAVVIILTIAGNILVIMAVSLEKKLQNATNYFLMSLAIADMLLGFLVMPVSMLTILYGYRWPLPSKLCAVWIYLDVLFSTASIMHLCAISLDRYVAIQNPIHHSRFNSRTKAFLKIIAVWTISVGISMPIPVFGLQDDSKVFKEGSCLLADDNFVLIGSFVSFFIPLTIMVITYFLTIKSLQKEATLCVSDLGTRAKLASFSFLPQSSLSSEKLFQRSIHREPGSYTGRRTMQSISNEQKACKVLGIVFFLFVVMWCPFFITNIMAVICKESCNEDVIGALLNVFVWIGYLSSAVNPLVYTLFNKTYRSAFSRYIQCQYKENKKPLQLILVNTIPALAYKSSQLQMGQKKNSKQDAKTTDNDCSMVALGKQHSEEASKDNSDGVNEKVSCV
Chain of dopamine D2 receptor (P14416 whole entry, species assumed): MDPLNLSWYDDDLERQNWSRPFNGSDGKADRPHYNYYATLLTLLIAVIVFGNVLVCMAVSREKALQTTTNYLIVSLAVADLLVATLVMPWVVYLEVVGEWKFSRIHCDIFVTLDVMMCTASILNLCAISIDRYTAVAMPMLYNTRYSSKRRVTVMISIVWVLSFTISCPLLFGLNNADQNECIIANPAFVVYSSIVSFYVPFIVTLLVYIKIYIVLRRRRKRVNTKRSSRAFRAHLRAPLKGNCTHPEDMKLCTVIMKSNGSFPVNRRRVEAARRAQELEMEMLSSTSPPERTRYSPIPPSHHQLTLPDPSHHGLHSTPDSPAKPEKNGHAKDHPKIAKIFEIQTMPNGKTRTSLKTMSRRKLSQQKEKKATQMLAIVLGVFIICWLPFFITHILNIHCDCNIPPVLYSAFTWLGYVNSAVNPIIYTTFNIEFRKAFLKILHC

SMILES	Formation of ceramide-enriched membrane domains (in words) [1]	In vitro inhibition of acid sphingomyelinase (in words) [3]	Infection of Vero cells with SARS-CoV-2 (in words) (SARS-CoV-2 [4])	Association of use at baseline with risk of intubation or death (in words) (severe COVID-19 [5])	Inhibition of viral replication (in words) (SARS-CoV-2 [6])	Association of use at baseline with risk of intubation or death (in words) (severe COVID-19 [7])	Effect on mortality in patients hospitalized with COVID-19 (in words) (COVID-19 [11])	other results
CN(C)CCC=C1c2ccccc2CCc2ccccc21 [Amitriptyline, amitriptyline]	inhibited ASM and the formation of ceramide-enriched membrane domains	inhibited ASM; also recorded: in vitro inhibit acid sphingomyelinase with varying degrees	prevented Vero cells from being infected with SARS-CoV-2	–	–	–	–	Infection of freshly isolated nasal epithelial cells with SARS-CoV-2 (in words) (SARS-CoV-2 [2]): efficiently blocked infection of freshly isolated nasal epithelial cells with SARS-CoV-2
CN(C)CCC[C@@]1(c2ccc(F)cc2)OCc2cc(C#N)ccc21 [Escitalopram, escitalopram]	inhibited ASM and the formation of ceramide-enriched membrane domains	inhibited ASM; also recorded: in vitro inhibit acid sphingomyelinase with varying degrees	prevented Vero cells from being infected with SARS-CoV-2	reached statistical significance across all main and sensitivity analyses	inhibition of viral replication was not observed	reached statistical significance across all main and sensitivity analyses	–	–
CNCCC(Oc1ccc(C(F)(F)F)cc1)c1ccccc1 (stereo not drawn) [Fluoxetine, fluoxetine]	inhibited ASM and the formation of ceramide-enriched membrane domains	inhibited ASM; also recorded: in vitro inhibit acid sphingomyelinase with varying degrees	prevented Vero cells from being infected with SARS-CoV-2	–	inhibition of viral replication	–	–	Infection of cultured epithelial cells with SARS-CoV-2 (in words) (SARS-CoV-2 [8]): inhibition of the infection of cultured epithelial cells with SARS-CoV-2
OCCOCCN1CCN(C(c2ccccc2)c2ccc(Cl)cc2)CC1 (stereo not drawn) [Hydroxyzine, 2-[2-[4-[(4-chlorophenyl)-phenylmethyl]piperazin-1-yl]ethoxy]ethanol]	–	–	–	reached statistical significance across all main and sensitivity analyses	–	reached statistical significance across all main and sensitivity analyses	–	Antagonist action at the dopamine D2 receptor (in words) (dopamine D2 receptor): weakly acts as an antagonist; Association of cumulative dose with risk of death (in words) (COVID-19 [9]; higher rather than lower cumulative doses): significantly associated with lower risk of death; also recorded: significantly stronger at higher rather than lower cumulative doses; Association of use with risk of death (in words) (COVID-19 [9]; hospitalized adult patients with COVID-19): significantly and substantially associated with reduced risk of death; also recorded: significantly associated with reduced mortality in patients hospitalized for COVID-19; also recorded: significantly and substantially associated with lower risk of death; Antagonist action at the serotonin 5-HT2A-receptor (in words) [10]: weakly acts as an antagonist; Antagonist action at the α1-adrenergic receptor (in words) (α1-adrenergic receptor): weakly acts as an antagonist
CC[C@H]1OC(=O)[C@H](C)[C@@H](O[C@H]2C[C@@](C)(OC)[C@@H](O)[C@H](C)O2)[C@H](C)[C@@H](O[C@@H]2O[C@H](C)C[C@H](N(C)C)[C@H]2O)[C@](C)(O)C[C@@H](C)CN(C)[C@H](C)[C@@H](O)[C@]1(C)O [azithromycin]	–	–	–	–	–	–	non-significant effect on mortality	–
CCN(CCO)CCCC(C)Nc1ccnc2cc(Cl)ccc12 (stereo not drawn) [hydroxychloroquine]	–	–	–	–	–	–	non-significant effect on mortality	–
